Measured values from US20250221981A1, “MAT2A INHIBITOR AND/OR TSG101 INHIBITOR FOR USE IN ANTIVIRAL THERAPY” (CAMBRIDGE ENTERPRISE LIMITED, priority 2022, published 2025).

Columns and labels:
[1] = system: Herpes Simplex Virus-1 (HSV-1); assay: HSV-1 titre by plaque assay (HaCaT cells infected, titrated on VERO cells); type: cell-based; details: 20 μM, MOI 10, 16 hrs
Experimental: (§1) FIG. 9: Inhibition of MAT2A with PF-9366 reduces Herpes Simplex Virus-1 (HSV-1) virion assembly Immortalised keratinocyte (HaCaT) cells were plated and treated with 20 μM PF-9366 or DMSO control. After 3 hrs cells were infected with HSV-1 (MOI 10). After 16 hrs cells were harvested by scraping and either pelleted for western blot or freeze/thawed for titration. To titre: VERO cells were plated and the following day infected with 10-fold dilutions, at 1 hpi cells were overlayed with CMC/media. At 48 hpi cells were fixed and stained with toluidine blue. To western blot: Pellets were lysed and run on SDS-PAGE gel. Proteins were transferred overnight to nitrocellulose membranes. Membranes were probed for HSV-1 ICP0 and VP16 proteins and Tubulin as a control.
(§2) For HSV-1 infections HaCaT cells were infected with HSV-1 at a multiplicity of infection (MOI) of 10 diluted in appropriate medium. At 1 hour post infection (hpi) medium was removed, cells were washed twice with phosphate-buffered saline (PBS), and fresh medium was added with or without inhibitors. At 16 hpi cells were either harvested for western blot or virus titre by plaque assay.
For HSV-1, confluent VERO cell monolayers were infected with 10-fold dilutions of samples. […] Cells were fixed at 48 hpi and stained with toluidine blue, allowing plaques to be counted. […]

[2] = system: Herpes Simplex Virus-1 (HSV-1); assay: Western blot of HSV-1 ICP0 and VP16 proteins in HaCaT cells; type: cell-based; details: 20 μM, MOI 10, 16 hrs
Experimental: as §1, §2
(§3) Cell lysate preparation and western blots were performed as described in Ren et al. (J Gen Virol. 2012 February; 93 (Pt 2): 319-329). […] Quantification was performed using LI-COR Image Studio Software.

[3] = system: Semliki Forest Virus 4 (SFV4); assay: SFV4 titre by plaque assay (BHK-21 cells infected, titrated on BSR cells); type: cell-based; details: 2 μM, MOI >10, 24 hrs, initial tests
Experimental: (§4) (A) SINV and SFV4: BHK-21 cells were plated. The following day 2 μM PF-9366 or DMSO control was added to media. After 3 hrs cells were infected with SINV or SFV4 (MOI >10). After 24 hrs cells were harvested by scraping. Cells were either pelleted for western blot or freeze/thawed for titration. To titre: BSR cells were plated and the following day infected with 10-fold dilutions, at 1 hpi cells were overlayed with LMA in 2×MEM (+5% FCS). At 72 hpi cells were fixed and stained with toluidine blue.
(§5) For Alphavirus infections BHK-21 cells were infected with either SINV or SFV-4 at a multiplicity of infection (MOI) greater than 10, diluted in appropriate medium. At 1 hour post infection (hpi) medium was removed, cells were washed twice with phosphate-buffered saline (PBS), and fresh medium was added. At 24 hpi supernatants were harvested for virus titre by plaque assay.
(§6) For SINV and SFV4, confluent BSR cell monolayers were infected with 10-fold dilutions of samples. At 1 hpi cells were overlayed with low melting-point agarose in 2×MEM (+5% FCS). Cells were fixed at 72 hpi and stained with toluidine blue, allowing plaques to be counted.
(§7) TSG101 inhibitor Ilaprazole (Sigma-Aldrich) was diluted in 100% DMSO. […]

[4] = system: Sindbis virus (SINV); assay: SINV titre by plaque assay (BHK-21 cells infected, titrated on BSR cells); type: cell-based; details: 2 μM, MOI >10, 24 hrs, initial tests
Experimental: as §4, §5, §6, §7

[5] = system: MAT2A; assay: Western blot of cellular MAT2A expression in BKPyV infected RPTE/TERT1 cells; type: cell-based, human; details: 10 μM; BKPyV MOI 3; 48 hpi; normalised to tubulin
Experimental: (C)(i) Effect of PF-9366 on viral early and late gene and cellular MAT2A expression: Cells were infected with BKPyV (MOI 3) in media containing appropriate drug concentrations. At 1 hpi infectious media was removed, cells were washed and fresh media with appropriate drug concentrations was added. Cells were harvested at 48 hpi and a western blot performed. Membranes were blotted for viral late gene VP1, LTAg, cellular MAT2A/MAT1A, and tubulin as a loading control.
(ii) Cellular MAT2A expression increases at lower PF-9366 concentrations: The density of MAT2A expression (lower western blot band) was measured, normalized to tubulin loading control (LiCor Image Studio Software), n=3.
It has previously been noted by Quinlan et al. (Nat Chem Biol. 2017 13 (7): 785-792) that treatment with PF-9366 can increase MAT2A expression as a compensatory mechanism within cells. […] At 48 hpi cells were harvested and protein expression was analysed by western blotting (FIG. 3C(i)). MAT2A expression was quantified from band intensities, normalised to the tubulin loading control and plotted (FIG. 3C(ii), n=3). […]
as §3

With `CN(C)CCc1nnc2cc(-c3ccccc3)c3cc(Cl)ccc3n12` [PF-9366] the “reduction in HSV-1 viral titres” value [1] was “greater than 100 fold”, the “impact on viral protein expression (ICP0 and VP16)” value [2] was “little impact” and the “reduction in viral titre (SFV4)” value [3] was 7-10 fold. For the same compound, the “reduction in viral titre (SINV)” value [4] was 7-10 fold and the “increase in the cellular expression of MAT2A” value [5] was 8 fold.
